Results published in ChEMBL document CHEMBL3991601, “The target landscape of clinical kinase drugs” (Science, 2017).
Active and inactive are the calls of the source. For most assays here, no stated cut-off is given here; in the data, actives have a measured Kd and inactives only a lower limit.

Tests used:
[1] = molecular target: Citron Rho-interacting kinase (Homo sapiens, UniProt O14578)
[2] = molecular target: Tyrosine-protein kinase CSK (Homo sapiens, UniProt P41240)
[3] = molecular target: T1, DNA replication licensing factor MCM4 (Homo sapiens, UniProt P33991)
T1 sequence (P33991 whole entry): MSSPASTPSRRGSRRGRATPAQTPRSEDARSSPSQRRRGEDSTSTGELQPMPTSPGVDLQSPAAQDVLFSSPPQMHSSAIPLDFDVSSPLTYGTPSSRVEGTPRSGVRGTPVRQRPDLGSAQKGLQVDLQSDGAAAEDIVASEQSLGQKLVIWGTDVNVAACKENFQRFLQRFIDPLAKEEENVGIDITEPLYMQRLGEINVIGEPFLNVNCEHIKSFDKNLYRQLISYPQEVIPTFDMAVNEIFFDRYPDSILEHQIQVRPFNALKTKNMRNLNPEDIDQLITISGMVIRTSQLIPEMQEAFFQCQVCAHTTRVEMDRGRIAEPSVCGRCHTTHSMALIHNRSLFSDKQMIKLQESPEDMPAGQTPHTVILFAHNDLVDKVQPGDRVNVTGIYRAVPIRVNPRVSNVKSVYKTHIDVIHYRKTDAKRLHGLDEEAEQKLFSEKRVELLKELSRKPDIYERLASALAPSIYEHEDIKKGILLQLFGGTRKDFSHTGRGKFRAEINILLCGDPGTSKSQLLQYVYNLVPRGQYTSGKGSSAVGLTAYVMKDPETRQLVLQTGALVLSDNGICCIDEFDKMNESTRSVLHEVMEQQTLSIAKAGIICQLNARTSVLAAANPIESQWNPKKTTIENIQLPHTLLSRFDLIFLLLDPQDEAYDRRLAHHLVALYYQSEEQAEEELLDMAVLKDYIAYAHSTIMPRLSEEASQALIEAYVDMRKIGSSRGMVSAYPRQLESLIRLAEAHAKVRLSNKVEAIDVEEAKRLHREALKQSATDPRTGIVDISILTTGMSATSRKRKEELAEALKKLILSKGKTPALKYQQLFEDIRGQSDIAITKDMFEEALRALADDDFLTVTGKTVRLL

[4] = molecular target: T2, Serine/threonine-protein kinase Nek9 (Homo sapiens, UniProt Q8TD19)
T2 sequence (Q8TD19 whole entry): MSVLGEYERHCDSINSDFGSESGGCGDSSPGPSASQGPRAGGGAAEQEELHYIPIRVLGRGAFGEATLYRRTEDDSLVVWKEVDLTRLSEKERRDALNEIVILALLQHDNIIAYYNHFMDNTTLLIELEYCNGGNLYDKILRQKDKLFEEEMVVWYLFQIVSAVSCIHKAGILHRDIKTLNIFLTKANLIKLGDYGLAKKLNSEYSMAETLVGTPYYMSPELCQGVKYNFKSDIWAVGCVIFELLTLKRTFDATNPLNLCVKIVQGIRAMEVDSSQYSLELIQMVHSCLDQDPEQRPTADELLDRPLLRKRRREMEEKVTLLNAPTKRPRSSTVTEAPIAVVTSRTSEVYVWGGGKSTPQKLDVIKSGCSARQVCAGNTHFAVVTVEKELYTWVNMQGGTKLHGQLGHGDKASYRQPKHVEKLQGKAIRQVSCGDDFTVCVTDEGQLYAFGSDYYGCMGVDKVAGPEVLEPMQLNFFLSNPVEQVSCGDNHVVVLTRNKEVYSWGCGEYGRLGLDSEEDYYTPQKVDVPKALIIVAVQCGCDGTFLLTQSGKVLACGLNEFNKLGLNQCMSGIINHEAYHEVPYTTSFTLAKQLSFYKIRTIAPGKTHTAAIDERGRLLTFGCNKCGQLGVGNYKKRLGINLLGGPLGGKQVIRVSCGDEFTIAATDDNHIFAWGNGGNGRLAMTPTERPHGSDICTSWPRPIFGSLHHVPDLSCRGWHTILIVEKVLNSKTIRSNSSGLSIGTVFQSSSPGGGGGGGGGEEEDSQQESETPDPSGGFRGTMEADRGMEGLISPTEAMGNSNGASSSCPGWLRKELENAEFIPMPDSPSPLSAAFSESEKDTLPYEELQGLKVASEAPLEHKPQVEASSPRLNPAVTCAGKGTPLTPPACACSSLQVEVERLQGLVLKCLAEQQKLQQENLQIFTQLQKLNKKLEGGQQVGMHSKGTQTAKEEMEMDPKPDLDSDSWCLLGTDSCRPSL

[5] = molecular target: T3, Serine/threonine-protein kinase TBK1 (Homo sapiens, UniProt Q9UHD2)
T3 sequence (Q9UHD2 whole entry): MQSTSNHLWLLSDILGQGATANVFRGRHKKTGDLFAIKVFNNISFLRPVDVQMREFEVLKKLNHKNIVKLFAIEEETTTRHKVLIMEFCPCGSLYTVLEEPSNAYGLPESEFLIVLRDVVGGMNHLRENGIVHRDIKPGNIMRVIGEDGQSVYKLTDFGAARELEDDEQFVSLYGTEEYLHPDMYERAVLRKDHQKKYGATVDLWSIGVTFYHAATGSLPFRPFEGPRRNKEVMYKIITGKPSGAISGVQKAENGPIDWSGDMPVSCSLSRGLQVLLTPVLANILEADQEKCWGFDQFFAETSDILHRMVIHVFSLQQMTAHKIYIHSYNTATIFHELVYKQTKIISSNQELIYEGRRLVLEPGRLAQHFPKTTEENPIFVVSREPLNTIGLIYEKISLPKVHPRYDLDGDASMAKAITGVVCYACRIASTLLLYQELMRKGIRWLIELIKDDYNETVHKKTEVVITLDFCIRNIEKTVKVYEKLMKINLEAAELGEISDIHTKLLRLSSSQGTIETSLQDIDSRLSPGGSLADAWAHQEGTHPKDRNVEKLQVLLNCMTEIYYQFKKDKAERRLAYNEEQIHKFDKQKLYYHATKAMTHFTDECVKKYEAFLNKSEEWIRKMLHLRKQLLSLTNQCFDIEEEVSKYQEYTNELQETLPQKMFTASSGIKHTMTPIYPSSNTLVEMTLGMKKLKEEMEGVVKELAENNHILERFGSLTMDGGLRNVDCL

[6] = molecular target: Non-receptor tyrosine-protein kinase TYK2 (Homo sapiens, UniProt P29597)
Non-receptor tyrosine-protein kinase TYK2, sequence (P29597 whole entry): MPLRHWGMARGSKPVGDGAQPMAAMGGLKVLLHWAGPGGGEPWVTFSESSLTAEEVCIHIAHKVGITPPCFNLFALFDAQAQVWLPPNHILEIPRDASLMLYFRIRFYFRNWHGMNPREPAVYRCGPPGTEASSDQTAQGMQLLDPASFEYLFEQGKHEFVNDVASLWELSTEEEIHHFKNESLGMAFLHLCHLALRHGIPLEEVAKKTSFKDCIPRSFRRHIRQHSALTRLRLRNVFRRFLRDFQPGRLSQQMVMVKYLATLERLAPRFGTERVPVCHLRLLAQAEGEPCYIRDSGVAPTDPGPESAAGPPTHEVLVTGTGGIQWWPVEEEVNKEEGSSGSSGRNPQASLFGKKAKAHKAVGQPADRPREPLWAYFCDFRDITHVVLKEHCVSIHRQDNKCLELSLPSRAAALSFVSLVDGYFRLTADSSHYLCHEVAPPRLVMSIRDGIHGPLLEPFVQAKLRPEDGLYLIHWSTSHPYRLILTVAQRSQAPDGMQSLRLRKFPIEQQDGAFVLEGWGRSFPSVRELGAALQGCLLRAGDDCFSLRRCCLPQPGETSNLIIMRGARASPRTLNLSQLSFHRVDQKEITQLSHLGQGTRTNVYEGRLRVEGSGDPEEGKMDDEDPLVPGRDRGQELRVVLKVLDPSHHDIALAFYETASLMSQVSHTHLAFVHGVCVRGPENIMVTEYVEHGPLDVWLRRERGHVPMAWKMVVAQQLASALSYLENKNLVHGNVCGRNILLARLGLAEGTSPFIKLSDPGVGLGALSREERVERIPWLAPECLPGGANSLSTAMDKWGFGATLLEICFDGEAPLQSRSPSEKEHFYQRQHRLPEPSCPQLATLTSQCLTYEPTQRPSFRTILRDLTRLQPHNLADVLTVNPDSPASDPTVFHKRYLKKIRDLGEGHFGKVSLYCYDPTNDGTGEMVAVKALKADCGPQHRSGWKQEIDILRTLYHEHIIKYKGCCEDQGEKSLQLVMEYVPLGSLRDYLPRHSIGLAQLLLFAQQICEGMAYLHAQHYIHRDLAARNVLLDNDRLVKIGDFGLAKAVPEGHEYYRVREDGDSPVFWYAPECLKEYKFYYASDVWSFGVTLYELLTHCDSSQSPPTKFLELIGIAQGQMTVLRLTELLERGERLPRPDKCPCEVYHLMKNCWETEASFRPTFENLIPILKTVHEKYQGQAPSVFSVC

Citron Rho-interacting kinase, sequence (O14578 whole entry): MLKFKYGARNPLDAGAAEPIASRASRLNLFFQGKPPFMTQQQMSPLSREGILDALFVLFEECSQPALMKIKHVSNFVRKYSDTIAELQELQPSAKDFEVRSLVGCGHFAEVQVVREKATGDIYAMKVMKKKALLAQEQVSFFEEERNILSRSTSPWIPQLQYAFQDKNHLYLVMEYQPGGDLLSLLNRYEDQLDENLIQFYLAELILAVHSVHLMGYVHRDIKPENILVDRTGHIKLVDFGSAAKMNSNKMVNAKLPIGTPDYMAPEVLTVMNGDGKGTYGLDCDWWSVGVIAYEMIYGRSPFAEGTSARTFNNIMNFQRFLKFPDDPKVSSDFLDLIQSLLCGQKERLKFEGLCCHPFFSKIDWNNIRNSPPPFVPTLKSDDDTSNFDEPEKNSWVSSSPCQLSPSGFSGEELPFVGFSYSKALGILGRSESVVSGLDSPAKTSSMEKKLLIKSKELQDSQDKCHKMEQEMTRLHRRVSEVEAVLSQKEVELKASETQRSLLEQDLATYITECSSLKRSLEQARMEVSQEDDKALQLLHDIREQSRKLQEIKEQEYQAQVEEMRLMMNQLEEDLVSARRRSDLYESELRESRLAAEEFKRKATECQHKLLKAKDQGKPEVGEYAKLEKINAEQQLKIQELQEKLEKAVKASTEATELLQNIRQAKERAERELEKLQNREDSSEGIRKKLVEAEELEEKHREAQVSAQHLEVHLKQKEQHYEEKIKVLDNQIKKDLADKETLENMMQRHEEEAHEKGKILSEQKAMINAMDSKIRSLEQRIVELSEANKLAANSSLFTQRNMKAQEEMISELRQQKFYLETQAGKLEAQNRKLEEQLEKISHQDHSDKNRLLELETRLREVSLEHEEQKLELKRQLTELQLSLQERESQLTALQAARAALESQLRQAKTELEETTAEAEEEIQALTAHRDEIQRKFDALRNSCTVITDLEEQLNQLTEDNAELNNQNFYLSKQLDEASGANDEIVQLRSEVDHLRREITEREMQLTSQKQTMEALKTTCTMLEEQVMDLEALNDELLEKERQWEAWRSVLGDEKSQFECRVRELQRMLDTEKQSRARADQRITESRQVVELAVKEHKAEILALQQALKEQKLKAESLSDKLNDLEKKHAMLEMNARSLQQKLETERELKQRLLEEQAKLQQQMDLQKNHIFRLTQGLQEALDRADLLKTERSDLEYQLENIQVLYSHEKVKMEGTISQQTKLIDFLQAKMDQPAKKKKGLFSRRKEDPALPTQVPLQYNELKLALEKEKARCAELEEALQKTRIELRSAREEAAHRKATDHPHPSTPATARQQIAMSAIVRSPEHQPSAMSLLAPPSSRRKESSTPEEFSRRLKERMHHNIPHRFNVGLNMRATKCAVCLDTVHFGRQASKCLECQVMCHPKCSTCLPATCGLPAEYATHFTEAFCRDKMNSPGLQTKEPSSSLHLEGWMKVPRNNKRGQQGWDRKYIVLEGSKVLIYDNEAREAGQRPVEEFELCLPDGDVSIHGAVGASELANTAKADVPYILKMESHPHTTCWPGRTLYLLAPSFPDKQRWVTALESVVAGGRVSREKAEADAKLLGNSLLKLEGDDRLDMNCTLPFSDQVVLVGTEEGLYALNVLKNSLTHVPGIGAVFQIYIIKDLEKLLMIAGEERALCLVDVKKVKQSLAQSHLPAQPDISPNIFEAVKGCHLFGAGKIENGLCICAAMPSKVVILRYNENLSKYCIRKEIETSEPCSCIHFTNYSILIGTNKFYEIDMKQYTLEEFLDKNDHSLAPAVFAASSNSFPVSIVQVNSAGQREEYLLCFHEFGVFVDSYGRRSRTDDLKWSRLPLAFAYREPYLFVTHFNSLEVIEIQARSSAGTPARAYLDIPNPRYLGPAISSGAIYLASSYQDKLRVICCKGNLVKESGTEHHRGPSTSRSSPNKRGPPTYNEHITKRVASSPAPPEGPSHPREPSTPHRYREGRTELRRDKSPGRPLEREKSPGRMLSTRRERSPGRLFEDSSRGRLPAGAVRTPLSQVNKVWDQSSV

Kd [1]	Kd [2]	Kd [3]	Kd [5]	Kd [6]	Compound	Kd [4]
> 30 µM (inactive)	> 30 µM (inactive)	> 30 µM (inactive)	> 30 µM (inactive)	> 30 µM (inactive)	CNC(=O)CN1CCC(Oc2cc3c(Nc4cccc(Cl)c4F)ncnc3cc2OC)CC1 [SAPITINIB]	> 30 µM (inactive)
> 30 µM (inactive)	> 30 µM (inactive)	> 30 µM (inactive)	> 30 µM (inactive)	> 30 µM (inactive)	C[C@@H](c1ccc2nccn2c1)n1nnc2ncc(-c3cnn(C)c3)nc21 [SAVOLITINIB]	> 30 µM (inactive)
> 30 µM (inactive)	> 30 µM (inactive)	> 30 µM (inactive)	> 30 µM (inactive)	> 30 µM (inactive)	CN1CCC(CNc2ccc3ncc(-c4cccc(OC(F)(F)F)c4)n3n2)CC1 [SGI-1776]	> 30 µM (inactive)
> 30 µM (inactive)	> 30 µM (inactive)	> 30 µM (inactive)	> 30 µM (inactive)	> 30 µM (inactive)	C[C@@H]1CN(Cc2ccc(F)cc2)[C@@H](C)CN1C(=O)c1cc2c(C(=O)C(=O)N(C)C)cn(C)c2cc1Cl [TALMAPIMOD]	> 30 µM (inactive)
> 30 µM (inactive)	> 30 µM (inactive)	> 30 µM (inactive)	> 30 µM (inactive)	> 30 µM (inactive)	O=c1sn(-c2cccc3ccccc23)c(=O)n1Cc1ccccc1 [TIDEGLUSIB]	> 30 µM (inactive)
> 30 µM (inactive)	> 30 µM (inactive)	> 30 µM (inactive)	> 30 µM (inactive)	> 30 µM (inactive)	COc1cc2nccc(Oc3ccc(NC(=O)Nc4cc(C)on4)c(Cl)c3)c2cc1OC [TIVOZANIB]	> 30 µM (inactive)
> 30 µM (inactive)	> 30 µM (inactive)	> 30 µM (inactive)	> 30 µM (inactive)	> 30 µM (inactive)	CC(=O)Nc1cccc(-n2c(=O)n(C3CC3)c(=O)c3c(Nc4ccc(I)cc4F)n(C)c(=O)c(C)c32)c1 [TRAMETINIB]	> 30 µM (inactive)
> 30 µM (inactive)	> 30 µM (inactive)	> 30 µM (inactive)	> 30 µM (inactive)	> 30 µM (inactive)	CN1N=C(N)c2cn([C@@H]3O[C@H](COP(=O)(O)O)[C@@H](O)[C@H]3O)c3ncnc1c23 [TRICIRIBINE PHOSPHATE]	> 30 µM (inactive)
> 30 µM (inactive)	> 30 µM (inactive)	> 30 µM (inactive)	> 30 µM (inactive)	> 30 µM (inactive)	CC(C)Nc1cc(-c2c[nH]c(C(=O)N[C@H](CO)c3cccc(Cl)c3)c2)c(Cl)cn1 [ULIXERTINIB]	> 30 µM (inactive)
> 30 µM (inactive)	> 30 µM (inactive)	> 30 µM (inactive)	> 30 µM (inactive)	> 30 µM (inactive)	CCCS(=O)(=O)Nc1ccc(F)c(C(=O)c2c[nH]c3ncc(-c4ccc(Cl)cc4)cc23)c1F [VEMURAFENIB]	> 30 µM (inactive)
> 30 µM (inactive)	> 30 µM (inactive)	> 30 µM (inactive)	> 30 µM (inactive)	> 30 µM (inactive)	CC[C@@H]1C(=O)N(C)c2cnc(Nc3ccc(C(=O)N[C@H]4CC[C@H](N5CCN(CC6CC6)CC5)CC4)cc3OC)nc2N1C(C)C [VOLASERTIB]	> 30 µM (inactive)
> 30 µM (inactive)	> 30 µM (inactive)	> 30 µM (inactive)	> 30 µM (inactive)	> 30 µM (inactive)	CCn1c(=O)c(-c2cc[nH]n2)cc2c(C)nc(N)nc21 [VOXTALISIB]	> 30 µM (inactive)
3.62 µM (active)	> 30 µM (inactive)	> 30 µM (inactive)	0.561 µM (active)	> 30 µM (inactive)	O=C(Nc1ccc(-c2ccnc(Nc3ccc(N4CCOCC4)cc3)n2)cc1)C1CCCN1 (stereo not drawn) [XL-019]	2.19 µM (active)
